{"source": "patent US11439696B2", "about": "“Modulation of proprotein convertase subtilisin/kexin 9 expression (PCSK9) with HSP 27 and/or HSP25” (PEMI31 Therapeutics Inc., priority 2015, dated 2022)", "key": {"[1]": {"assay": "Stability of HSP27 in human serum at −20° C. (MRM-MS)", "type": "physicochemical", "conditions": "two representative human sera, 3 weeks storage at −20° C. (FIG. 7E)", "protocol": "The assay was fully validated according to the U.S. Food and Drug Administration (FDA) Bioanalytical method validation guideline (www.fda.dov/downloads/Drugs/GuidanceComplianceRegulatoryInformation/Guidances/UCM070107). Nine calibration standards of trypsin-digested recombinant HSP27 were prepared by serial dilution in concentrations of 1000; 500; 250; 125; 62.5; 31.25; 15.625; 7.8 and 0 ng/ml. The limit of detection (LOD) was calculated as the smallest detectable peak above baseline noise (signal-to-noise ratio>3:1). Calculating target peptide: AQUA peptide ratios of the peak area for each concentration level. Standard curves were constructed by linear regression analysis by excel. The same samples were analyzed 7 times and the repeatability was compared. Extraction efficiency and recovery were performed by comparing concentrations between samples without and with standard rHSP27. Matrix effect was assessed using double dilution test for the linearity when serum samples were 1, 2, 4 and 8 times diluted. Parallelism test was also applied to estimate matrix effect. Stability of HSP27 in human serum was estimated for 21 days at −20° C."}, "PCSK9 [2]": {"test_system": "PCSK9", "assay": "Western blot (relative densitometry) of PCSK9 expression in HepG2 (liver) cells", "type": "cell-based", "conditions": "HepG2 (liver) cells treated for 1 h (FIG. 15)", "protocol": "(§1) HepG2 cells (0.5×10^6 cells/60 mm well) were incubated on H-Glucose DMEM medium containing 10% FBS and 1×penicillin/streptomycin in the presence or absence of rHsp27 (200 μg) for specified time periods at 37° C. At the end of incubation period, the medium was removed and centrifuged at 4,000 rpm for 10 min at 4° C. to remove a small amount of residual cells and debris. The supernatant fraction was stored at 4° C. until analyzed.\n(§2) Meanwhile, cells were washed three times with cold PBS, scraped off the dishes (after the addition of 1 ml lysis buffer (20 mM Tris-HCl; pH 8.0; 150 mM NaCl; 0.1 mM PMSF), and sonicated; whole cell lysates were then stored at −20° C. until use.\n(§3) Total cell or tissue lysates were prepared in lysis buffer (20 mM Tris-Hcl pH8.0, 150 mM NaCl, 0.1% SDS, 0.1 mM PMSF). Lysates were cleared by centrifugation at 4° C., 12,000 rpm for 10 min, and protein concentrations were determined using the Bradford protein assay with BSA as the standard. […]\nHepG2 cells in the 6-well plates were washed twice with phosphate-buffered saline and lifted by pipette with 1 ml PBS. […] The membrane fraction was re-suspended in PBS by sonication and the protein concentration was determined by Bradford reagent (Sigma). […] Signals on the membrane were visualized by chemi-luminescence of HRP substrate."}, "LDL-Receptor": {"test_system": "LDL-Receptor", "assay": "Western blot (relative densitometry) of LDL-Receptor expression in HepG2 (liver) cells", "type": "cell-based", "conditions": "HepG2 (liver) cells treated for 6 h (FIG. 16)", "protocol": "as §1, §2, §3"}, "LDL-Receptor (LDL-R)": {"test_system": "LDL-Receptor (LDL-R)", "assay": "LDL-Receptor fluorescent immunolabelling of HepG2 (liver) cells", "type": "cell-based", "conditions": "HepG2, 17β-estradiol 100 nM or rHSP27 100 μg overnight (16 hours) (FIG. 17)", "protocol": "HepG2 cells (10^5 cells) were seeded in SPL Coverglass sterile dish 35×10 mm (Bio Lab) for 2 days. Cells were then treated with 17β-estradiol (100 nM) or rHSP27 (100 μg) overnight (16 hours). After washing, cells were fixed in 4% paraformaldehyde, permeabilized in 0.5% (v/v) Triton x-100 for 10 minutes, washed, blocked in 10% horse serum (1 hour), washed, then incubated in primary antibody rabbit monoclonal to LDL-R (Ab52818; ABCAM; 1:100) 4° C. overnight. After washing, cells were incubated in secondary antibody fluorescein goat Anti-Rabbit IgG antibody (FI-1000; Vector Laboratories; 1:100) for 30 min at room temperature, then mounted with mounting medium with DAPI (VectaShield Antifade Mounting Medium with DAPI; Vector Labs H-1200) for at least 24 hour in the dark before visualization. Various controls were used, and included: (i) absence of the Triton treatement, and (ii) omitting the primary or secondary antibodies used for immunolabelling. Immunofluorescence 10^5 cells were seeded ina SPL coverglass sterile dish 35×10 mm (Bio Lab) for 2 days. The cells were then treated with 17 β-estradiol (100 nM) or rHSP27 (100 μg) overnight (16 hours). […] Mounted with mounting medium with DAPI (VectaShield Antifade Mounting Medium with DAPI; Vector Labs H-1200) for at least 24 hour in the dark before visualization with fluorescence microscopy."}, "PCSK9 mRNA": {"test_system": "PCSK9 mRNA", "assay": "PCSK9 mRNA expression in HepG2 (liver) cells by quantitative RT-PCR", "type": "cell-based", "conditions": "HepG2 (FIG. 14)"}, "PCSK9 [3]": {"test_system": "PCSK9", "assay": "PCSK9 secretion from HepG2 (liver) cells with increasing doses of Atorvastatin", "type": "cell-based", "conditions": "HepG2, increasing doses of AV (FIG. 12)", "protocol": "[…] At the end of incubation period, the medium was removed and centrifuged at 4,000 rpm for 10 min at 4° C. to remove a small amount of residual cells and debris. The supernatant fraction was stored at 4° C. until analyzed.\nTotal cell or tissue lysates were prepared in lysis buffer (20 mM Tris-Hcl pH8.0, 150 mM NaCl, 0.1% SDS, 0.1 mM PMSF). Lysates were cleared by centrifugation at 4° C., 12,000 rpm for 10 min, and protein concentrations were determined using the Bradford protein assay with BSA as the standard. Samples (30 μl culture medium, 50 μg for cell and 25 μg for liver) were separated by SDS-PAGE under reducing conditions, transferred to IMMOBILON® PVDF (IMMOBILON is a registered trademark of Millipore Corp.) using IBLOT® Dry Blotting System (Life Technologies; IBLOT is a registered trademark of Invitrogen Corp., Carlsbad, Calif., USA) and subsequently membranes were immunoblotted with the following antibodies: LDL-R (Santa Cruz, 1:1000) and PCSK9 (Santa Cruz, 1:1000); β-Actin (Santa Cruz, 1:1000) was used as the loading control. Appropriate secondary HRP-conjugated antibodies were used prior to visualization by enhanced chemiluminescence (ECL, Life technologies)."}}, "note": "“And” between values parts separate entries of the source, which are not always exact repeats. Equal values may be shown once."}
{"molecule": "endogenous HSP27: endogenous heat shock protein 27 in human serum samples, measured by MRM-MS", "values": [{"measurement": "endogenous HSP27 remaining after storage", "setting": "[1]", "value": "111+6 % of fresh sera and 87+5 % of fresh sera"}]}
{"molecule": "C[C@]12CC[C@@H]3c4ccc(O)cc4CC[C@H]3[C@@H]1CC[C@@H]2O", "note": "[17 β-estradiol]", "values": [{"measurement": "reduction in PCSK9 expression", "setting": "PCSK9 [2]", "value": 28, "unit": "%"}, {"measurement": "increase in LDL-Receptor expression", "setting": "LDL-Receptor", "value": 116, "unit": "%"}, {"measurement": "LDL-R signal", "setting": "LDL-Receptor (LDL-R)", "value": "increased"}]}
{"molecule": "CC(C)c1c(C(=O)Nc2ccccc2)c(-c2ccccc2)c(-c2ccc(F)cc2)n1CC[C@@H](O)C[C@@H](O)CC(=O)O", "note": "[AV, Atorvastatin]", "values": [{"measurement": "PCSK9 expression (mRNA) on treatment with AV", "setting": "PCSK9 mRNA", "value": "increase"}, {"measurement": "secretion of PCSK9", "setting": "PCSK9 [3]", "value": "dose-dependent secretion"}]}
